Test results: PMC11992225, “Antibacterial compounds against non-growing and intracellular bacteria” (npj Antimicrobials and Resistance, 2025)
pEC50: −log10 of the molar value. Several values for one entry are separate records, joined by “and”; a condition that tells them apart may be missing. Identical values can stand only once.

Key:
[1] = test system: non-growing P. aeruginosa DSM1117; experiment: Dilution-regrowth assay (OD600, start-growth-time) on stationary-phase P. aeruginosa; type: cell-based, Pseudomonas aeruginosa; conditions: P. aeruginosa; regrowth delay of non-growing bacteria, 1:4 CA-MHB pH 7.4, 24 h treatment, OD600 8 h after dilution; read-out: EC50
Procedure, shortened: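 Start-growth-time was taken as the point where OD600, recorded every 20 min at 37 °C over about 20 h of regrowth, passed 0.12. Before that, non-growing cultures in HEPES-buffered 1:4 CA-MHB (pH 7.4) were exposed for 24 h, with compounds at 20 μM in preliminary runs.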

[2] = test system: non-growing S. aureus DSM2569; experiment: Dilution-regrowth assay (OD600, start-growth-time) on stationary-phase S. aureus; type: cell-based, Staphylococcus aureus; conditions: S. aureus; regrowth delay of non-growing bacteria, 1:4 CA-MHB pH 7.4, 24 h treatment, OD600 8 h after dilution; read-out: EC50
Procedure, shortened: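 Non-growing S. aureus was tested in a dilution-regrowth format. Cells were cultured and treated for 24 h in 1:4 diluted CA-MHB, pH 7.4, then diluted into drug-free medium, and OD600 was measured every 20 min. Start-growth-time was the time OD600 passed 0.12. Dose-response curves were fitted with a five-parameter logistic equation to derive EC50.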

[3] = test system: non-growing S. aureus DSM2569; experiment: Dose-dependent killing analysis (CFU spot-plating) of stationary-phase S. aureus; type: cell-based, Staphylococcus aureus; conditions: for killing, average Δlog10(CFU/ml) / log10(CFU/ml) of treated nongrowing bacteria (single replicates): S. aureus; for log10(CFU/ml) of treated nongrowing bacteria (single replicates): before treatment 9,097
Procedure, shortened: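 Survival was scored as CFU after overnight growth at 37 °C on LB agar, using spots from 10-fold PBS dilutions of treated cultures. Non-growing S. aureus DSM2569 had been exposed to compound for 24 h in 1:4 CA-MHB, pH 7.4. Three biological replicates were run.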

non-growing UPEC CFT073 = experiment: Dose-dependent killing analysis (CFU spot-plating) of stationary-phase UPEC; type: cell-based, Escherichia coli
Procedure, shortened: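 Killing assessed by CFU counts: overnight 37 °C LB agar spot plates (10 μl drops of 10-fold PBS dilutions) scored at the lowest dilution with distinct colonies. Samples were compound-treated non-growing UPEC CFT073, 200 μl per well. Performed as three biological replicates.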

N[C@@H]1CN(c2c(F)cc3c(=O)c(C(=O)O)cn([C@@H]4C[C@@H]4F)c3c2Cl)CC12CC2 [Sitafloxacin]
pEC50 [1]: 7.27 | pEC50 [2]: 6.97 | killing of non-growing S. aureus (reduction of bacterial counts) ([3]; 10 to 0.1 μM, 24 h treatment): the most activity | killing, average Δlog10(CFU/ml) ([3]; drug concentration 0.1): 0.348 log10(CFU/ml) | log10(CFU/ml) of treated nongrowing bacteria (single replicates) ([3]; drug concentration 0.1): 8.602 log10(CFU/ml) and 8.881 log10(CFU/ml) and 8.763 log10(CFU/ml) | killing, average Δlog10(CFU/ml) ([3]; drug concentration 0.5): 1.504 log10(CFU/ml) | log10(CFU/ml) of treated nongrowing bacteria (single replicates) ([3]; drug concentration 0.5): 7.223 log10(CFU/ml) and 7.833 log10(CFU/ml) and 7.724 log10(CFU/ml) | killing, average Δlog10(CFU/ml) ([3]; drug concentration 2.5): 2.447 log10(CFU/ml) | log10(CFU/ml) of treated nongrowing bacteria (single replicates) ([3]; drug concentration 2.5): 6.820 log10(CFU/ml) and 6.716 log10(CFU/ml) and 6.413 log10(CFU/ml) | killing, average Δlog10(CFU/ml) ([3]; drug concentration 10): 2.500 log10(CFU/ml) | log10(CFU/ml) of treated nongrowing bacteria (single replicates) ([3]; drug concentration 10): 6.908 log10(CFU/ml) and 6.613 log10(CFU/ml) and 6.270 log10(CFU/ml) | bactericidal activity against non-growing UPEC (CFU counting) (non-growing UPEC CFT073; 24 h treatment of stationary phase culture): most potent and bactericidal | killing, average Δlog10(CFU/ml) (non-growing UPEC CFT073; E. coli in 1:4 CA-MHB (pH 7.4), drug concentration 0.25): 1.161 log10(CFU/ml) | log10(CFU/ml) of treated nongrowing bacteria (single replicates) (non-growing UPEC CFT073; E. coli in 1:4 CA-MHB (pH 7.4), drug concentration 0.25, before treatment 8.977): 8.415 log10(CFU/ml) and 7.602 log10(CFU/ml) and 7.431 log10(CFU/ml) | killing, average Δlog10(CFU/ml) (non-growing UPEC CFT073; E. coli in 1:4 CA-MHB (pH 7.4), drug concentration 0.5): 2.277 log10(CFU/ml) | log10(CFU/ml) of treated nongrowing bacteria (single replicates) (non-growing UPEC CFT073; E. coli in 1:4 CA-MHB (pH 7.4), drug concentration 0.5, before treatment 8.977): 7.255 log10(CFU/ml) and 6.699 log10(CFU/ml) and 6.146 log10(CFU/ml) | killing, average Δlog10(CFU/ml) (non-growing UPEC CFT073; E. coli in 1:4 CA-MHB (pH 7.4), drug concentration 1): 3.175 log10(CFU/ml) | log10(CFU/ml) of treated nongrowing bacteria (single replicates) (non-growing UPEC CFT073; E. coli in 1:4 CA-MHB (pH 7.4), drug concentration 1, before treatment 8.977): 6.204 log10(CFU/ml) and 5.903 log10(CFU/ml) and 5.301 log10(CFU/ml) | killing, average Δlog10(CFU/ml) (non-growing UPEC CFT073; E. coli in 1:4 CA-MHB (pH 7.4), drug concentration 2.5): 4.145 log10(CFU/ml) | log10(CFU/ml) of treated nongrowing bacteria (single replicates) (non-growing UPEC CFT073; E. coli in 1:4 CA-MHB (pH 7.4), drug concentration 2.5, before treatment 8.977): 5.176 log10(CFU/ml) and 4.477 log10(CFU/ml) and 4.845 log10(CFU/ml) | killing, average Δlog10(CFU/ml) (non-growing UPEC CFT073; E. coli in 1:4 CA-MHB (pH 7.4), drug concentration 5): 4.067 log10(CFU/ml) | log10(CFU/ml) of treated nongrowing bacteria (single replicates) (non-growing UPEC CFT073; E. coli in 1:4 CA-MHB (pH 7.4), drug concentration 5, before treatment 8.977): 5.255 log10(CFU/ml) and 4.699 log10(CFU/ml) and 4.778 log10(CFU/ml) | killing, average Δlog10(CFU/ml) (non-growing UPEC CFT073; E. coli in 1:4 CA-MHB (pH 7.4), drug concentration 10): 4.500 log10(CFU/ml) | log10(CFU/ml) of treated nongrowing bacteria (single replicates) (non-growing UPEC CFT073; E. coli in 1:4 CA-MHB (pH 7.4), drug concentration 10, before treatment 8.977): 4.954 log10(CFU/ml) and =<4 log10(CFU/ml) and 4.477 log10(CFU/ml) | killing, average Δlog10(CFU/ml) (non-growing UPEC CFT073; E. coli in LPM (pH 5.5), drug concentration 0.25): -0.135 log10(CFU/ml) | log10(CFU/ml) of treated nongrowing bacteria (single replicates) (non-growing UPEC CFT073; E. coli in LPM (pH 5.5), drug concentration 0.25, before treatment 7.350): 7.000 log10(CFU/ml) and 7.176 log10(CFU/ml) and 8.279 log10(CFU/ml) | killing, average Δlog10(CFU/ml) (non-growing UPEC CFT073; E. coli in LPM (pH 5.5), drug concentration 0.5): 0.023 log10(CFU/ml) | log10(CFU/ml) of treated nongrowing bacteria (single replicates) (non-growing UPEC CFT073; E. coli in LPM (pH 5.5), drug concentration 0.5, before treatment 7.350): 6.778 log10(CFU/ml) and 7.000 log10(CFU/ml) and 8.204 log10(CFU/ml) | killing, average Δlog10(CFU/ml) (non-growing UPEC CFT073; E. coli in LPM (pH 5.5), drug concentration 1): -0.037 log10(CFU/ml) | log10(CFU/ml) of treated nongrowing bacteria (single replicates) (non-growing UPEC CFT073; E. coli in LPM (pH 5.5), drug concentration 1, before treatment 7.350): 7.146 log10(CFU/ml) and 7.114 log10(CFU/ml) and 7.903 log10(CFU/ml) | killing, average Δlog10(CFU/ml) (non-growing UPEC CFT073; E. coli in LPM (pH 5.5), drug concentration 2.5): 0.324 log10(CFU/ml) | log10(CFU/ml) of treated nongrowing bacteria (single replicates) (non-growing UPEC CFT073; E. coli in LPM (pH 5.5), drug concentration 2.5, before treatment 7.350): 7.000 log10(CFU/ml) (2×) and 7.079 log10(CFU/ml) | killing, average Δlog10(CFU/ml) (non-growing UPEC CFT073; E. coli in LPM (pH 5.5), drug concentration 5): 1.016 log10(CFU/ml) | log10(CFU/ml) of treated nongrowing bacteria (single replicates) (non-growing UPEC CFT073; E. coli in LPM (pH 5.5), drug concentration 5, before treatment 7.350): 6.301 log10(CFU/ml) and 6.954 log10(CFU/ml) and 5.748 log10(CFU/ml) | killing, average Δlog10(CFU/ml) (non-growing UPEC CFT073; E. coli in LPM (pH 5.5), drug concentration 10): 1.383 log10(CFU/ml) | log10(CFU/ml) of treated nongrowing bacteria (single replicates) (non-growing UPEC CFT073; E. coli in LPM (pH 5.5), drug concentration 10, before treatment 7.350): 6.279 log10(CFU/ml) and 6.544 log10(CFU/ml) and 5.079 log10(CFU/ml)
